Data reported in US10139394B2, “Method for controlling cancer metastasis or cancer cell migration by modulating the cellular level of lysyl tRNA synthetase” (Medicinal Bioconvergence Research Center, priority 2008, dated 2018).

Columns and labels:
phosphorylation of KRS = assay: Laminin-induced phosphorylation of Myc-KRS, immunoprecipitation and immunoblot with anti-p-Thr, -Ser, -Tyr antibodies; type: cell-based, human; details: Myc-KRS transfected A549 cells; laminin treatment; FIG. 10
Method: (§1) In FIG. 7, A549 cells were treated with laminin (10 ug/ml) and the level of 67LR, 37LRP and KRS was determined by Western blotting at the indicated times. Hsp90 and Cadherin were used as markers for cytoplasm and membrane, respectively. In FIG. 8, A549 cells untreated or treated with laminin for 1 h were subjected to immunofluorescence staining with anti-67LR (MLuC5, Santacruz, sc-59732) (red) and -KRS antibodies (green). In FIG. 9, A549 cells were treated with U73122 (U), staurosporin (ST) and LY294002 (LY) that inhibit PLC-gamma, PKC and PI3K, respectively, for 3 hr, then with laminin for 1 hr and checked how these kinase inhibitors would affect the membrane and cytoplasmic level of 67LR and KRS. In FIG. 10, A549 cells were transfected with Myc-KRS and incubated for 24 h. The cells were treated with the indicated chemicals and then with laminin as above. Myc-KRS was immunoprecipitated, and immunoblotted with anti-p-Thr, -Ser, and -Tyr antibodies. In FIG. 11, A549 cells were transfected with Myc-KRS and cultivated for 24 hr. The transfectants were pre-treated with LY294002 for 3 hr and then treated with laminin for 1 h. Myc-KRS was immunoprecipitated and co-precipitation of 67LR was determined by Western blotting. […] EPRS (glutamyl-prolyl-tRNA synthetase) was immunoprecipitated with its specific antibody (AbCam), and co-immunoprecipitation of KRS was determined by Western blotting (upper). […]

KRS and EPRS = assay: Co-immunoprecipitation of KRS with EPRS (multi-ARS complex); type: cell-based; details: A549 cells; absence of LY compound; FIG. 12
Method: as §1

MMP-2 = MMP-2 zymography; type: cell-based; details: A549 cells; laminin 10 μg/ml 24 hr; FIG. 19
Method: In FIG. 18, A549 cells were transfected with the indicated plasmids, incubated in the absence and presence of laminin and their effect on cell migration was determined by measuring the migrated cells in transwell chamber as described. The numbers of the cells passed through the membrane were counted and shown in each panel. The experiments were performed three times. In FIG. 19, the cells treated as above were used to determine MMP-2 activity and level by zymography and Western blotting, respectively. In FIG. 20, Breast carcinoma 4T-1 cells were transfected with the indicated siRNA and subcutaneously injected to the back of Balb/C mice. After 21 days, mouse lungs were isolated and tumor nodules over 1 mm in diameter were counted. In FIG. 21, two different 4T-1 cells stably expressing exogenously introduced KRS (KRS-1 and -2) were also inoculated as above and the tumor nodules were counted 30 days after injection. 4T-1 cells with empty vector were used as control. In FIG. 22, expression levels of KRS and 67LR in lung (upper) and breast (lower) cancer tissues were compared by immunohistochemical staining with their respective antibodies. 39 lung and 40 breast cancer tissues were subjected to immunohistochemical staining with anti-KRS and anti-67LR antibodies and their expression levels were compared with those in normal tissues (9 samples for each tissue). […]

Substance: laminin: laminin (Engelbreth-Holm-Swarm murine sarcoma) from Sigma
- phosphorylated KRS at threonine and serine (phosphorylation of KRS): increased
- association of KRS with EPRS (KRS and EPRS): decreased
- MMP-2 activity (MMP-2): enhanced
